Series [1] deals with cationized BSA-induced membranous glomerulitis. Further details: method as in Zhang et al., 2013. The following applies: ref Zhang et al., 2013; cited from earlier work.
The test system of series [2] is streptozotocin-induced diabetic nephropathy. Further details: method as in Zhang et al., 2012. To be noted: ref Zhang et al., 2012; cited from earlier work.
The nature of series [3]: Pharmacokinetics study after single oral dose of HP. It counts as in vivo, C57BL/6 mice. To be noted: male, C57BL/6, mouse, in vivo, mice, n = 5. How it is done: All of the animals were fasted for 12 h before receiving HP and were then allowed to eat for 4 h after administration. The dosing solutions used for the animal studies were prepared by dissolving the required amounts of HP in distilled water. […] The plasma was separated and stored at 2–8°C until analysis. […] Louis, MO, USA) and then mixed with 180 μL of acetonitrile (Merck, Darmstadt, Germany) to precipitate protein. After centrifugation, aliquots (10 μL each) of the supernatant were used for analysis. […] The mobile phase consisted of solvent A [0.1% formic acid (Dikma Technologies, Inc., CA, USA) in water] and solvent B [0.1% formic acid in methanol (Merck)]. The analytes were eluted at a flow rate of 0.2 mL/min, with the following gradient elution: from 0 to 0.6 min, 20% B; linear increase to 95% B in 0.2 min; 95% B for 4 min, decrease to 20% B in 0.2 min; and stabilization at initial conditions for 6 min. The mass spectrometer was set for multiple reaction monitoring and was operated in a positive-ion mode with an electrospray ionization source. Nitrogen was used as the curtain gas and the collision gas. The ion-spray voltage was set at 5,500 V, and the gas temperature at 500°C.

Where [4] appears, read: plasma, single oral dose of 50 mg/kg HP.

The text below walks through data of paper PMC5735979, “Total Coumarins from Hydrangea paniculata Show Renal Protective Effects in Lipopolysaccharide-Induced Acute Kidney Injury via Anti-inflammatory and Antioxidant Activities” (Frontiers in Pharmacology, 2017).

Molecules are shown by their SMILES.

For the molecule `O=c1ccc2ccc(O[C@@H]3O[C@H](CO)[C@@H](O)[C@H](O)[C@H]3O)cc2o1` [Skimmin, skimmin], in series [1], the “progression of cationized BSA-induced membranous glomerulitis” value is “could slow the progression”. For the same molecule, the “progression of streptozotocin-induced diabetic nephropathy” value in series [2] is given as “could slow the progression”. The concentration at 0.08 h in series [3] (0.08 h after single oral dose of 50 mg/kg HP, mean ± SD, read-out: Blood drug concentration) was 7.5 ± 2.94 µM. Further, the concentration at 0.25 h in series [3] (0.25 h after single oral dose of 50 mg/kg HP, mean ± SD, read-out: Blood drug concentration) was 14.2 ± 3.71 µM. The concentration at 0.5 h in series [3] (0.5 h after single oral dose of 50 mg/kg HP, mean ± SD, read-out: Blood drug concentration) turned out to be 12.6 ± 2.12 µM. Besides, the concentration at 1 h in series [3] (1 h after single oral dose of 50 mg/kg HP, mean ± SD, read-out: Blood drug concentration) came to 7.41 ± 1.53 µM. Moreover, the concentration at 1.5 h in series [3] (1.5 h after single oral dose of 50 mg/kg HP, mean ± SD, read-out: Blood drug concentration) worked out at 4.44 ± 0.89 µM. In addition, the concentration at 2 h in series [3] (2 h after single oral dose of 50 mg/kg HP, mean ± SD, read-out: Blood drug concentration) came to 3.64 ± 0.94 µM. In series [3] (3 h after single oral dose of 50 mg/kg HP, mean ± SD, read-out: Blood drug concentration), the concentration at 3 h worked out at 2.37 ± 3.51 µM. The concentration at 4 h in series [3] (4 h after single oral dose of 50 mg/kg HP, mean ± SD, read-out: Blood drug concentration) turned out to be 1.16 ± 1.11 µM. The concentration at 8 h in series [3] (8 h after single oral dose of 50 mg/kg HP, mean ± SD, read-out: Blood drug concentration) was found to be 0.17 ± 0.22 µM. For the same molecule, the concentration at 12 h in series [3] (12 h after single oral dose of 50 mg/kg HP, mean ± SD, read-out: Blood drug concentration) worked out at 0.05 ± 0.02 µM. In addition, the half-life (commonly how long it takes for the measured level to halve) in series [3] (elimination half-life, plasma, single oral dose of 50 mg/kg HP) was 1.55 h. Further, in series [3] (setting [4]), the AUC(0-inf) – broadly, the area under the concentration-time curve extrapolated to infinity – amounted to 23.4 µM·h; the AUC(0-t) (commonly exposure summed from dosing to a finite time, without extrapolation to infinity) is 23.3 µM·h; the Cmax (as a rule, the peak of the concentration-time curve) turned out to be 14.2 µM; the time to peak (Tmax) – broadly, the time from dosing to the highest level – turned out to be 0.25 h. For the same molecule, the MRT last in series [3] (plasma, single oral dose of 50 mg/kg HP, read-out: MRT(0−t)) worked out at 1.75 h. In addition, the MRT inf in series [3] (plasma, single oral dose of 50 mg/kg HP, read-out: MRT(0−∞)) came to 1.81 h.
